# Data: article PMC11923385, “Rational Design, Synthesis, and Biological Assessment of Potential Indole‐Capped HDAC6 Inhibitors for Gastric Cancer Suppression” (MedComm, 2025)
# Where two headings read alike, the source gives them in different places.
# Key:
# HDAC6 [1] = target: T1, HDAC6 (Homo sapiens, UniProt Q9UBN7); assay: BLI binding assay; conditions: biotinylated HDAC6 on streptavidin biosensors
# T1 sequence (Q9UBN7 1-1215): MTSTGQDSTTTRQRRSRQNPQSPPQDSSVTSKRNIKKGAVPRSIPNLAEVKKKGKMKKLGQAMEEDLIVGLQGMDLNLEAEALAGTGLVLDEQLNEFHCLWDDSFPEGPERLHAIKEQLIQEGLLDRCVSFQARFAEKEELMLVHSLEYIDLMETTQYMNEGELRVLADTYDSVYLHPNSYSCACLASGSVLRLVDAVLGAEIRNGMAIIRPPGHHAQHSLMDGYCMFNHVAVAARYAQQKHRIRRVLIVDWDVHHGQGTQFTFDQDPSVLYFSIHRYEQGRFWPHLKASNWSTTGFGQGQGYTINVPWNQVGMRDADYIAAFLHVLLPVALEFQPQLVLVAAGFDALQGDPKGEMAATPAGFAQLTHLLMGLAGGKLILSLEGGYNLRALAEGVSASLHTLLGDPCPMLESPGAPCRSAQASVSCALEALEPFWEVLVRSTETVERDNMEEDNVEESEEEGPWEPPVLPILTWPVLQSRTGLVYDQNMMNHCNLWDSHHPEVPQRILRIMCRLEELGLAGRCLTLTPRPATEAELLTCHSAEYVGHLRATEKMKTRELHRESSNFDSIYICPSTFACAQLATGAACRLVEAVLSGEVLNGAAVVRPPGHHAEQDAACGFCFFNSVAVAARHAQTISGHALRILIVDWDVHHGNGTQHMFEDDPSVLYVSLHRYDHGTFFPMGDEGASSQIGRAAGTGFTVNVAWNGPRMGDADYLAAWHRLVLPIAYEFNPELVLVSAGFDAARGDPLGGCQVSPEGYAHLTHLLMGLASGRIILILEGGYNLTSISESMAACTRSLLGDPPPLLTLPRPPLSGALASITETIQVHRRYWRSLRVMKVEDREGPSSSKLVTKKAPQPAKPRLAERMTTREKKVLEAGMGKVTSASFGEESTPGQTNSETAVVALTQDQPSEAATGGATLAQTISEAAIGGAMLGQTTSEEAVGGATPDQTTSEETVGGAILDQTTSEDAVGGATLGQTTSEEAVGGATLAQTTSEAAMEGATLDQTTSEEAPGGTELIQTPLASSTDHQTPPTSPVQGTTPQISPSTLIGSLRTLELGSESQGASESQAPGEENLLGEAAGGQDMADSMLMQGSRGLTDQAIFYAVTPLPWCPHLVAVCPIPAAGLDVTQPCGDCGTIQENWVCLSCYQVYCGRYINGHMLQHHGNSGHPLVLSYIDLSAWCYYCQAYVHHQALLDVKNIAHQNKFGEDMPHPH
# Protocol: BLI experiments were conducted using an Octet Red 96 instrument (ForteBio). Streptavidin-coated biosensors (SA, ForteBio) were utilized, and biotinylated HDAC6 protein (50 μg/mL) was immobilized on the biosensor surface. The immobilization levels typically exceeded 0.3 nm. Ligand-loaded SA biosensors were then exposed to various concentrations of compound 10n. The dissociation constants for the interactions between HDAC6 and compound 10n were determined by plotting the increase in BLI response as a function of […].
# [2] = Pharmacokinetic study in mice; assay type: in vivo; conditions: male, ICR, mouse, plasma
# Protocol: Six male ICR mice were divided into two groups, receiving compound 10n via intravenous and oral administration, respectively. The intravenous injection group had blood samples collected at 5 min, 15 min, 30 min, 1 h, 2 h, 4 h, 6 h, 8 h, and 24 h post-administration; the oral group had blood samples collected at the same time points. Approximately 0.05 mL of blood was collected for each sample. The concentration of compound 10n in mouse plasma samples was determined using LC-MS/MS method and pharmacokinetic parameters were calculated using WinNolin software.
# MGC‐803 cells [3] = assay: Cytotoxicity against MGC-803 cells; assay type: cell-based; conditions: Homo sapiens, 72 h
# HDAC1 = HDAC1 (Homo sapiens, UniProt Q13547); assay: HDAC1 enzyme activity assay; assay type: biochemical; conditions: HDAC1 compared to HDAC6
# MKN‐45 cells = assay: Cytotoxicity against MKN-45 cells; assay type: cell-based; conditions: Homo sapiens, 72 h
# MGC‐803 cells [4] = assay: PD-L1 expression in MGC-803 cells; assay type: cell-based; conditions: compared to vehicle control
# HDAC6 [5] = target: T1, HDAC6; assay: HDAC6 enzymatic assay (Ac-Lys-AMC substrate, fluorescence); assay type: biochemical; set-up: purchased BPS bioscience, USA; conditions: enzyme activity assay
# Protocol: (§1) The HDAC6 substrate Ac-Lys-AMC (Chinapeptides, China), human recombinant protein HDAC6 (100 ng/mL) (BPS bioscience, USA), and the test compounds were incubated together at 37°C in an assay buffer. The assay buffer consisted of 25 mM HEPES (pH 7.5), 100 mM NaCl, 2.5 mM KCl, 0.005% Tween-20, 1 mM MgCl2, and 0.1 mg/mL bovine serum albumin. After incubation for 1 hour, trypsin was added to release the fluorescent fragment.
# HDAC2 = HDAC2 (Homo sapiens, UniProt Q92769); assay: HDAC2 enzyme activity assay; assay type: biochemical; conditions: HDAC2 compared to HDAC6
# MFC cells = assay type: in vivo, mice; conditions: for tumor growth inhibition rate (TGI): MFC tumor, 615 mice, 14 days
# Protocol: Six-week-old 615 mice (male) were procured from SJA laboratory animals in Hunan, China, and acclimated to a pathogen-free environment for one week before the commencement of the experiment. Subsequently, 5 × 10^5 of gastric cancer cell MFC were subcutaneously administered into the right flank of the mice. Tumor volume was determined using the formula length × width^2/2. […] Following 14 days, the mice were euthanized, and their tumors and vital organs were dissected for analysis. Paraffin sections measuring 4 µm in thickness were subjected to deparaffinization and subsequently treated with 3% hydrogen peroxide to inhibit endogenous peroxidase activity. Following this, slides were prepared to prevent nonspecific antibody binding and were then exposed to primary antibodies targeting HDAC6, Ac-tubulin, Ki-67, and Tunnel. The mice involved in the study were maintained in specific pathogen-free environments, and the experimental procedures were approved by the Ethics Committee of the Zhengzhou University Health Science Centre. The animal experimentation ethics number is ZZU-URIB-2024-O-109. All experimental animals adhered to the ARRIVE guidelines and were strictly in accordance with the National Research Council Guidelines for the Care and Use of Laboratory Animals.
# HDAC6 [6] = target: T1, HDAC6; assay: CETSA of HDAC6 at the cellular level; assay type: cell-based
# [7] = system: HDAC6 (Ac‐α‐tubulin, Ac‐H3 readout); assay: Western blot of HDAC6, Ac-H3 and Ac-α-tubulin in cells; assay type: cell-based
# Protocol: (§2) Following the indicated treatment, cells were collected and lysed using the recommended amount of radio immunoprecipitation assay (RIPA) buffer from KMT Bio, China, according to the provided instructions. The protein concentration in the lysate was determined using a bicinchoninic acid (BCA)-based protein quantification kit from KMT Bio, China. Subsequently, the samples were denatured in the presence of a 6× loading buffer from KMT Bio, China. Equal amounts of denatured protein samples were subjected to sodium dodecyl sulfate-polyacrylamide gel electrophoresis (SDS-PAGE), and the target protein was then transferred to a nitrocellulose membrane using the wet transfer method with Pall, USA membranes. The membrane was incubated with 5% non-fat milk at 37°C for 1 hour to block non-specific binding, followed by an overnight incubation at 4°C with the recommended concentration of the primary antibody. Afterward, the membranes were washed three times with PBST (PBS buffer with 0.1% Tween-20) for 10 minutes each. The secondary antibody was then appropriately diluted and incubated with the membrane at room temperature for 1 hour. Finally, the membranes were washed three more times with PBST for 10 minutes each, and the protein bands were visualized using an ECL chemiluminescence detection kit from ThermoFisher, USA.
# gastric cancer cells = assay: Apoptosis, mitochondrial membrane potential and apoptosis protein expression in gastric cancer cells; assay type: cell-based
# Protocol: as §2
# HDAC3 = HDAC3 (Homo sapiens, UniProt O15379); assay: HDAC3 enzyme activity assay; assay type: biochemical; conditions: HDAC3 compared to HDAC6
# HDAC8 = target: T2, HDAC8 (Homo sapiens, UniProt Q9BY41); assay: HDAC8 enzyme activity assay; assay type: biochemical; conditions: HDAC8 compared to HDAC6
# T2 sequence (Q9BY41 1-377): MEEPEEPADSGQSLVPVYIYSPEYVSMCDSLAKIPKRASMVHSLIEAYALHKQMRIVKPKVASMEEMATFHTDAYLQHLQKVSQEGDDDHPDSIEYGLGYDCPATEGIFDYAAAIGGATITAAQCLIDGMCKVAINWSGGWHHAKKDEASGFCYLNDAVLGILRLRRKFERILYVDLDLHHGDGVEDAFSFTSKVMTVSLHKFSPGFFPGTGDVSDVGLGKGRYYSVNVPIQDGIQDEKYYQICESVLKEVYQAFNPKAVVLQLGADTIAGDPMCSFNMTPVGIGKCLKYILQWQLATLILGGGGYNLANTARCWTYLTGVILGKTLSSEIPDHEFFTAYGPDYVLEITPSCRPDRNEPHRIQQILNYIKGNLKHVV
# Protocol: as §1
# Chain of HDAC3 (O15379 whole entry, species assumed): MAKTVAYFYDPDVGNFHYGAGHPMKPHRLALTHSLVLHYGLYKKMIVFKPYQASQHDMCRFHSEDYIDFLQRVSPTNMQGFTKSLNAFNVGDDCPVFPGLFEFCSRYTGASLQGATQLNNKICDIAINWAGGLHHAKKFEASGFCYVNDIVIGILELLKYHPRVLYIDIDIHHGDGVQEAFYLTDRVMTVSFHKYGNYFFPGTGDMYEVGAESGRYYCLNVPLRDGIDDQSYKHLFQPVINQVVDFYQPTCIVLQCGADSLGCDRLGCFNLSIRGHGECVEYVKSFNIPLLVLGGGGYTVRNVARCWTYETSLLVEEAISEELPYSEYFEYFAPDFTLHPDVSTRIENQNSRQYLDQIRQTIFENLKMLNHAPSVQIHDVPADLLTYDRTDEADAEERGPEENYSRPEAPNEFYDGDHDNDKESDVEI
# Chain of HDAC3 (Q9Y618 395-489 partner limits assumed, species assumed): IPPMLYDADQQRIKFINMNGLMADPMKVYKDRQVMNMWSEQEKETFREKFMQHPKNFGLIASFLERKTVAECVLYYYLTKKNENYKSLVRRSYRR
# Chain of HDAC1 (Q13547 whole entry, species assumed): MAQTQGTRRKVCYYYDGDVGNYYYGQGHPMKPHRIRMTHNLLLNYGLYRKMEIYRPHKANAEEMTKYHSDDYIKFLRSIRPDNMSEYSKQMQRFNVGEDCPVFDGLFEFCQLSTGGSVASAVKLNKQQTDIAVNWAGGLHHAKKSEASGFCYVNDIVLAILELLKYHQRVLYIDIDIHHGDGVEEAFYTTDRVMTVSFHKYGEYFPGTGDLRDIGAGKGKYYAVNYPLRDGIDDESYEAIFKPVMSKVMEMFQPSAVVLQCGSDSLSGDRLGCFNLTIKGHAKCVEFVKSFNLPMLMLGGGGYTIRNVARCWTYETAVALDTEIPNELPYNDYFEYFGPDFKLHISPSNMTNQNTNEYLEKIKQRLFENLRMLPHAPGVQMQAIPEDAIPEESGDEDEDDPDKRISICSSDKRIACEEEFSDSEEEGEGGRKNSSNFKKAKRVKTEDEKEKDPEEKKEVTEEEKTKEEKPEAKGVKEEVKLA
# Chain of HDAC2 (Q92769 whole entry, species assumed): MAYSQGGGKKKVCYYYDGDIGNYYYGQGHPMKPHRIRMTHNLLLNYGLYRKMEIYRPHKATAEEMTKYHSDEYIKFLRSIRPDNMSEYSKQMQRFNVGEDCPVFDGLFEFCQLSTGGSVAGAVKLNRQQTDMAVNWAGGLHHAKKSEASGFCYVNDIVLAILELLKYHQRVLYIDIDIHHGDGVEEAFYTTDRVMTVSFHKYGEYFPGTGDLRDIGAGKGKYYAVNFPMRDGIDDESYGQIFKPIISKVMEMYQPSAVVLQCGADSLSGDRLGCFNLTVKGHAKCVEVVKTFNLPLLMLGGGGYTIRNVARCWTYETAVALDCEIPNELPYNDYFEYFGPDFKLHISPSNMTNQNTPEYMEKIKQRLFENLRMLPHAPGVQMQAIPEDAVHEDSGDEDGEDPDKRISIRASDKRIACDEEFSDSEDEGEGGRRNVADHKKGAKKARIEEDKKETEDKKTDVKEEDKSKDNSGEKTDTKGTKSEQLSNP
compound,measurement,setting,value
O=C(NO)c1ccc(CNC(=O)c2cn(CC3CC3)c3ccccc23)cc1 [Compound 10n],Kd,HDAC6 [1],330 ± 180 nM
same,AUC,[2]; iv,350 ± 51.9 ng·h/mL
same,half-life,[2]; iv,1.61 ± 0.34 h
same,AUC,[2]; po,730 ± 140 ng·h/mL
same,bioavailability,[2]; po,41.8 ± 0.08%
same,half-life,[2]; po,2 ± 0.44 h
same,IC50,MGC‐803 cells [3],1070 ± 312 nM
same,selectivity ratio HDAC1/6,HDAC1,133.7 fold
same,IC50,MKN‐45 cells,2700 ± 935 nM
same,PD-L1 expression,MGC‐803 cells [4],dose‐dependent reduction
same,IC50,HDAC6 [5],3.11 nM
same,selectivity ratio HDAC2/6,HDAC2,27.8 fold
same,tumor growth inhibition rate (TGI),MFC cells; oral 10 mg/kg once daily,55.3%
same,tumor growth inhibition rate (TGI),MFC cells; oral 20 mg/kg once daily,80.6%
same,"toxicity in treated mice (body weight, organs)","MFC cells; MFC tumor-bearing mice, 10 or 20 mg/kg oral",no apparent toxicity
same,HDAC6 protein expression in treated animals,MFC cells; tumor tissue,no changes
same,Ki-67 expression in mice,MFC cells; tumor tissue,decreased
same,levels of Ac-α-tubulin in treated animals,"MFC cells; tumor tissue, immunohistochemistry",markedly elevated
same,percentages of CD3+CD8+ cells in tumors,MFC cells; two treatment groups versus control,higher than the control
same,HDAC6 thermal stabilization (CETSA),HDAC6 [6],notably stabilized HDAC6
same,acetylated H3 levels and HDAC6,[7],no impact
same,acetylated α-tubulin levels,[7],dose‐dependent increase
same,mitochondrial membrane potential ratios,gastric cancer cells,increase
same,proportion of apoptotic cells,gastric cancer cells,dose‐dependent increase
same,selectivity ratio HDAC3/6,HDAC3,82.8 fold
same,selectivity ratio HDAC8/6,HDAC8,622.22 fold
